This is an account of results in patent US20260365670A1, “EGFR INHIBITORS AND USES THEREOF” (DIZAL (JIANGSU) PHARMACEUTICAL CO., LTD., priority 2022, published 2026).

For one experiment, the target named is T1, EGFR Exon19Del/T790M (Homo sapiens, UniProt P00533, DEL746-750/T790M).
T1 construct: purchased Carna Bio
Kind of experiment: Inhibition of EGFR Exon19Del/T790M biochemical enzymatic activity (HTRF). Particulars: 1 mM ATP. Summed up: (§1)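 Recombinant kinases phosphorylated 1 μM biotinylated TK substrate with 1 mM ATP in buffer with 5 mM MgCl2, 1 mM MnCl2, 0.01% CHAPS, 1 mM DTT, 0.5% DMSO. Reaction ran 1 h at room temperature, stopped with EDTA-containing detection mix. HTRF 665/615 nm ratio gave IC50 via four-parameter logistic fit.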
In general terms: TR-FRET usually uses a lanthanide donor and a delayed reading to cut background.

A further experiment addresses T2, EGFR L858R/T790M (Homo sapiens, UniProt P00533, L858R/T790M).
T2 construct: purchased Carna Bio
Kind of experiment: Inhibition of EGFR L858R/T790M biochemical enzymatic activity (HTRF). Particulars: 1 mM ATP. A digest of the protocol:
as §1

Another experiment concerns the target T3, EGFR[T790M/C797S/L858R] (Homo sapiens, UniProt P00533, C797S/L858R/T790M).
T3 construct: purchased Carna Bio
Kind of experiment: Inhibition of EGFR[T790M/C797S/L858R] biochemical enzymatic activity (HTRF). The settings on record: 1 mM ATP. Summed up: as §1

The next experiment concerns the target T4, EGFR wild type (Homo sapiens, UniProt P00533).
T4 construct: purchased Carna Bio
Put plainly: Inhibition of EGFR wild type biochemical enzymatic activity (HTRF). The settings on record: 1 mM ATP. Summed up: as §1

For experiment [1], the system named is Ba/F3 cells expressing EGFR mutations. Put plainly: Cell proliferation assay, Ba/F3 cells expressing EGFR mutations (CellTiter-Glo, 72 hours). It is filed as cell-based. The settings on record: Mus musculus, BaF3, 72 h. Summed up: (§2)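 Ba/F3 cells (5000/well) and PC-9 cells (500/well, RPMI1640 with 10% FBS) were plated overnight and then dosed with a compound concentration series. Viable cells were read at day 0 (G0) and after treatment (G3). GI50 came from curve fits of G0-corrected proliferation relative to DMSO.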

Experiment [2] addresses T5, EGFR[T790M/C797S/d746-750] (Homo sapiens, UniProt P00533, C797S/DEL746-750/T790M).
T5 construct: purchased Carna Bio
Put plainly: Inhibition of EGFR[T790M/C797S/d746-750] biochemical enzymatic activity (HTRF). A digest of the protocol:
as §1

The target of the next experiment is T6, EGFR Exon19Del (Homo sapiens, UniProt P00533, DEL746-750).
T6 construct: purchased Carna Bio
T6 sequence (P00533 with tags, fused parts or gaps DEL746-750 limits assumed): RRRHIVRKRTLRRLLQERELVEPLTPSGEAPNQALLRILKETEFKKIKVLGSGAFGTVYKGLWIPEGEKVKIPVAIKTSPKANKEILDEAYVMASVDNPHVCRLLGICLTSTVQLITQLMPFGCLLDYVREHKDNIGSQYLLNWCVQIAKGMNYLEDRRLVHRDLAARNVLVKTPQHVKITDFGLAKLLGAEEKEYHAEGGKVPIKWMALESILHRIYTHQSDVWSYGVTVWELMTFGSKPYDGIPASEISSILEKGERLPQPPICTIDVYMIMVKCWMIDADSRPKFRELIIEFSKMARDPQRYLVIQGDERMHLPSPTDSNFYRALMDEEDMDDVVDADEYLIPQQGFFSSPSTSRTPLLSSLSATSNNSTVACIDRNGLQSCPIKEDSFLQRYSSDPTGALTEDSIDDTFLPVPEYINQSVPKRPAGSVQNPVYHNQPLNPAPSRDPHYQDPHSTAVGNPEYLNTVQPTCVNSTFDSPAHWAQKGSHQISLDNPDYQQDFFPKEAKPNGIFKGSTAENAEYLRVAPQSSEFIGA
Kind of experiment: Inhibition of EGFR Exon19Del biochemical enzymatic activity (HTRF). A digest of the protocol: as §1

A further experiment deals with T7, EGFR (C797S L858R) (Homo sapiens, UniProt P00533, C797S/L858R).
T7 construct: purchased signalchem
T7 sequence (P00533 25-1210 C797S/L858R): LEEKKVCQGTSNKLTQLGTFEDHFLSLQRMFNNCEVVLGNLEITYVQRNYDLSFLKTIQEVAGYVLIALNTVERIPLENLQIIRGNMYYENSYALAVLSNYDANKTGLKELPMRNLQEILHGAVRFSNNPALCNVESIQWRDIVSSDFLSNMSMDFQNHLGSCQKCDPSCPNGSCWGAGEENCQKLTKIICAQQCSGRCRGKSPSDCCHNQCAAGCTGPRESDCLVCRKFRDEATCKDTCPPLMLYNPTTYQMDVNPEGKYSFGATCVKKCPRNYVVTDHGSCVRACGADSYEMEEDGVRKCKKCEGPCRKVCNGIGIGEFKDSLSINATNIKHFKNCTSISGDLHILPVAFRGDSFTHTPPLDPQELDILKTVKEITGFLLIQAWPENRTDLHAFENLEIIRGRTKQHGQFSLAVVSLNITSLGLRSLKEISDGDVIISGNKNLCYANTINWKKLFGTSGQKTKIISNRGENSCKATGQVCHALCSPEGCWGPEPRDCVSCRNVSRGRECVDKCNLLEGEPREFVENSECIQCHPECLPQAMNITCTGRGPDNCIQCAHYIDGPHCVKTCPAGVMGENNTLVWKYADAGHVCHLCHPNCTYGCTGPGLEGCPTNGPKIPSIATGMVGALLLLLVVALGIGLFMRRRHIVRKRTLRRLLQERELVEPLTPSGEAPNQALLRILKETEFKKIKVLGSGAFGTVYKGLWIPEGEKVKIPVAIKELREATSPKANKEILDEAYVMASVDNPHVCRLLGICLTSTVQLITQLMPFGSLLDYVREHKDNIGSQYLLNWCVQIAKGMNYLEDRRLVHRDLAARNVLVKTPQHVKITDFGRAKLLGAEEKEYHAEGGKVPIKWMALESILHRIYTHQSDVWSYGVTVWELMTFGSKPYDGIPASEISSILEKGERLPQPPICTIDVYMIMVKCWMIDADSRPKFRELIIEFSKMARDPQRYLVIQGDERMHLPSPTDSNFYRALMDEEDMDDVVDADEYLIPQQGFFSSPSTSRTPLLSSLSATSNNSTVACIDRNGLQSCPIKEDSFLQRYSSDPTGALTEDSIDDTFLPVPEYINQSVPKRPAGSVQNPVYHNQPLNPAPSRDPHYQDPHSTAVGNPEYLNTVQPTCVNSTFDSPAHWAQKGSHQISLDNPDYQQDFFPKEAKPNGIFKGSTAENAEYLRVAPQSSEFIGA
Put plainly: Inhibition of EGFR (C797S L858R) biochemical enzymatic activity (HTRF). Particulars: 1 mM ATP. Summed up: as §1

In another experiment the target is T8, EGFR (d746-750 C797S) (Homo sapiens, UniProt P00533, C797S/DEL746-750).
T8 construct: purchased signalchem
Kind of experiment: Inhibition of EGFR (d746-750 C797S) biochemical enzymatic activity (HTRF). The settings on record: 1 mM ATP. Summed up: as §1

The test system of another experiment is PC-9. Put plainly: Cell proliferation assay, PC-9 cells (CellTiter-Glo, 72 hours). The class given is cell-based. Particulars: Homo sapiens, PC-9, 72 h, PC9 cells. A digest of the protocol: as §2
(ATP-based viability assays read luminescence as a measure of living cells.)

For another experiment, the target named is T9, EGFR L858R (Homo sapiens, UniProt P00533, L858R).
T9 construct: purchased Carna Bio
Put plainly: Inhibition of EGFR L858R biochemical enzymatic activity (HTRF). The settings on record: 1 mM ATP. A digest of the protocol: as §1

Where two headings read alike, the source gives them in different places. Where only a bound is given, the exact number is not on record here.

As a reminder, the IC50 is the concentration that inhibits the measured activity by half.

T3 sequence (P00533 25-1210 T790M/C797S/L858R): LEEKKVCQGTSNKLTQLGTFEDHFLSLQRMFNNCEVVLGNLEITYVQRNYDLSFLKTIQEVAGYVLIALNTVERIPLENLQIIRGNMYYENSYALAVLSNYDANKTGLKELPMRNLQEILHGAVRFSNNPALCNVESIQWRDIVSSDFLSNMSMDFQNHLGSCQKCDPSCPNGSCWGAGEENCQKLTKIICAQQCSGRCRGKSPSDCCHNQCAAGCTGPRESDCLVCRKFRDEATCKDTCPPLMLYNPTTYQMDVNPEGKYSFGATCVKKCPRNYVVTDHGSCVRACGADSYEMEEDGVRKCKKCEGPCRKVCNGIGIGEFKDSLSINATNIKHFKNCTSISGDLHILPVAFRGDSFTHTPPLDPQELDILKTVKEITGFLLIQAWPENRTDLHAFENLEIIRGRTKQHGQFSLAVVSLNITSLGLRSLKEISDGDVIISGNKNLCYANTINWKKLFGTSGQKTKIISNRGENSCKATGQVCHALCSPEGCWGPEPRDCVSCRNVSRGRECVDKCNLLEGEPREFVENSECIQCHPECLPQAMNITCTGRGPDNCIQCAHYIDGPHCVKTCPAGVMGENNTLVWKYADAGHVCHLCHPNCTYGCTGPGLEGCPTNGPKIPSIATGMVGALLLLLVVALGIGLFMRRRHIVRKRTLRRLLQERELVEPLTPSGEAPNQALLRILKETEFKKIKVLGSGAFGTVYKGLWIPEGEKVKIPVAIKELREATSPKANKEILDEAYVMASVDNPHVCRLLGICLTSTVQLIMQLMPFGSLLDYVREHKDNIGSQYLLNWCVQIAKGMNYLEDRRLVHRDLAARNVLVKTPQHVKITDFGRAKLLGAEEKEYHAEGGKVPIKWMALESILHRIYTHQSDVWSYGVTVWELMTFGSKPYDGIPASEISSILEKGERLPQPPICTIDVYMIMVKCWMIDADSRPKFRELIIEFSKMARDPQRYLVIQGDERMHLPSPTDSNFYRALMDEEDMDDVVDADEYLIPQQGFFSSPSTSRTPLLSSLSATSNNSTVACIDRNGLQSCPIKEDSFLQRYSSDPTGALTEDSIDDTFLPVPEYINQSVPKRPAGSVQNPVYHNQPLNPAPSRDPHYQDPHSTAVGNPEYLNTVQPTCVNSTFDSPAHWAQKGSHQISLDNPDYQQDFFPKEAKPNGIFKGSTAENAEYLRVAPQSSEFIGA
T4 sequence (P00533 25-1210): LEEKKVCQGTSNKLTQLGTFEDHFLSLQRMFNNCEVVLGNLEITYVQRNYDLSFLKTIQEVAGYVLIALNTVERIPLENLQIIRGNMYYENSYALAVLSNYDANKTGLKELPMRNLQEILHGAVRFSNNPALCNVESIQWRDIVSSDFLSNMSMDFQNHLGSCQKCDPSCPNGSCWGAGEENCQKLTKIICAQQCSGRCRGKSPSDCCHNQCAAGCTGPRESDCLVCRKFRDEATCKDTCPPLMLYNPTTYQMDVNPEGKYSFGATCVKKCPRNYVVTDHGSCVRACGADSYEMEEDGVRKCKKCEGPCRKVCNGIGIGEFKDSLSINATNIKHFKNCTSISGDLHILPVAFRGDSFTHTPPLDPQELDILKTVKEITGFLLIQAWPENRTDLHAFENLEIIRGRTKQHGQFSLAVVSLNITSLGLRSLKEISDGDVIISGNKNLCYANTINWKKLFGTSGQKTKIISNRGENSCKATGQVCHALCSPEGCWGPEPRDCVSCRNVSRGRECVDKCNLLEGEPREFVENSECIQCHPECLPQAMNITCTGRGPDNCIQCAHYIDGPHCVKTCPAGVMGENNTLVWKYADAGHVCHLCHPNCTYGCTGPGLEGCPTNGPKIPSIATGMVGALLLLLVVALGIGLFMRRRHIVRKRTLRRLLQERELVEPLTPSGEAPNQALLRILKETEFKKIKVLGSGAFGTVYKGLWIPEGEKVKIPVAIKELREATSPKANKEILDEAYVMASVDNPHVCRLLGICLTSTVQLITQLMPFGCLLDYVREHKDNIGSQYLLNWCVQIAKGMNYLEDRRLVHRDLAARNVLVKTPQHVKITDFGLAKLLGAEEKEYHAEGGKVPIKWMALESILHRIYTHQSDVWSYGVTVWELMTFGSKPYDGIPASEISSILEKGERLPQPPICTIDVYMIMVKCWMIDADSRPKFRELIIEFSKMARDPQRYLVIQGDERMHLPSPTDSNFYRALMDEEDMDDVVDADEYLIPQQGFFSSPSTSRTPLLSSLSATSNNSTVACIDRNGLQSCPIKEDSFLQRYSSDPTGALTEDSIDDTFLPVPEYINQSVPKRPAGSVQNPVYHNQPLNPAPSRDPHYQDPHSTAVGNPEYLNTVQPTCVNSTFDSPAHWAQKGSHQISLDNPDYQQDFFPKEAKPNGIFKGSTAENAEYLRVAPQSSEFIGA
T1 sequence (P00533 with tags, fused parts or gaps DEL746-750/T790M limits assumed): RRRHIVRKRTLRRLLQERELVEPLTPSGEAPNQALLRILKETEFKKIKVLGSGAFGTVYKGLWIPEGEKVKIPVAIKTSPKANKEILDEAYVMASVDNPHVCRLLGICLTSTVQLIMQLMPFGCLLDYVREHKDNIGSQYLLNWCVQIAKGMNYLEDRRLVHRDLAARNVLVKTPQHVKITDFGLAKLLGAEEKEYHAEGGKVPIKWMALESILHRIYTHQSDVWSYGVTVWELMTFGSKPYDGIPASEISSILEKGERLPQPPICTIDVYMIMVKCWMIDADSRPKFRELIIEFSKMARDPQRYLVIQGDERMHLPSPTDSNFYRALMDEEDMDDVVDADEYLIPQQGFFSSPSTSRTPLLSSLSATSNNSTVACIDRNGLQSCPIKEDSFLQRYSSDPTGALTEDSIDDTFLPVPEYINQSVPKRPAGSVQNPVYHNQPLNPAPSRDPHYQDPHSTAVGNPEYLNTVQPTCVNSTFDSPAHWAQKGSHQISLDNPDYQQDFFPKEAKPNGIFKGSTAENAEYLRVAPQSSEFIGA

`C[C@@H]1CCCOc2c(cnn2CC(F)(F)F)-c2cc(cn(C)c2=O)C(=O)Nc2nc3ccc(N4CCN(C)CC4)cc3n2C1` [Example A20, (11R)-11,26-Dimethyl-16-(4-methylpiperazin-1-yl)-5-(2,2,2-trifluoroethyl)-7-oxa-4,5,13,20,22,26-hexaazapentacyclo[22.3.1.0^{2,6}.0^{13,21}.0^{14,19}]octacosa-1(28),2(6),3,14,16,18,20,24-octaene-23,27-dione]: the IC50 was 41 nM at EGFR Exon19Del/T790M (EGFR Del19-T790M, 1 h, room temperature, read-out: IC50 (nM) @Del19-T790M); 82 nM at EGFR L858R/T790M (EGFR L858R-T790M, 1 h, room temperature, read-out: IC50 (nM) @L858R-T790M); 76 nM on EGFR[T790M/C797S/L858R] (EGFR T790M-C797S-L858R, 1 h, room temperature, read-out: IC50 (nM) @T790M- C797S - L858R); more than 5000 nM at EGFR wild type (EGFR WT, 1 h, room temperature, read-out: IC50 (nM) @WT); 40 nM in experiment [2] (EGFR T790M-C797S-Del19, 1 mM ATP, 1 h, room temperature, read-out: IC50 (nM) @T790M - C797S - Del19); 0.086 µM at EGFR Exon19Del (EGFR Del19, 1 mM ATP, 1 h, room temperature, read-out: IC50 @Del19). For the same compound, the IC50 at EGFR (C797S L858R) (EGFR L858-C797S, 1 h, room temperature, read-out: IC50 (nM) @L858-C797S) was found to be 132 nM; on EGFR (d746-750 C797S) (EGFR Del19-C797S, 1 h, room temperature, read-out: IC50 (nM) @Del19-C797S), 42 nM; on EGFR L858R (1 h, room temperature, read-out: IC50 (nM) @L858R), 301 nM. In addition, the GI50 was determined as 0.0171 µM in experiment [1] (BaF3 cells, EGFR DEL19-C797S, CellTiter-Glo, read-out: DEL19-C797S/BaF3 GI50); 0.204 µM in experiment [1] (BaF3 cells, EGFR DEL19-T790-C797S, CellTiter-Glo, read-out: DEL19-T790-C797S/BaF3 GI50); 0.089 µM in [1] (BaF3 cells, EGFR L858R, CellTiter-Glo, read-out: L858R/BaF3 GI50); 0.087 µM in [1] (BaF3 cells, EGFR L858R-C797S, CellTiter-Glo, read-out: L858R-C797S/BaF3 GI50); 0.051 µM in [1] (BaF3 cells, EGFR L858R-T790-C797S, CellTiter-Glo, read-out: L858R-T790-C797S/BaF3 GI50); 0.039 µM in [1] (BaF3 cells, EGFR L858R-T790M, CellTiter-Glo, read-out: L858R-T790M/BaF3 GI50). Further, the GI50 in [1] (EGFR DEL19-T790M, CellTiter-Glo, read-out: DEL19-T790M GI50) was 0.226 µM; in the experiment with PC-9 (CellTiter-Glo, read-out: PC9 GI50) it was 0.145 µM.

On to `Cc1cc2cc(n1)-c1cnn(C)c1OCCCCCn1c(nc3ccc4c(c31)CCN(CCN(C)C)C4)NC2=O` [Example B23, 18-[2-(Dimethylamino)ethyl]-5,30-dimethyl-7-oxa-4,5,13,18,24,26,31-heptaazahexacyclo[26.3.1.0^{2,6}.0^{13,25}.0^{14,23}.0^{15,20}]dotriaconta-1(31),2(6),3,14,20,22,24,28(32),29-nonaen-27-one], for which the half-inhibitory concentration (IC50) at EGFR Exon19Del/T790M (IC50 @Del19-T790M, EGFR Exon19Del/T790M, 1 h at room temperature) was 3.8 nM; at EGFR L858R/T790M (IC50 @L858R-T790M, EGFR L858R/T790M, 1 h at room temperature), 12 nM; against EGFR[T790M/C797S/L858R] (IC50 @T790M- C797S - L858R, EGFR[T790M/C797S/L858R], 1 h at room temperature), 5.4 nM; on EGFR wild type (IC50 @WT, EGFR wild type, 1 h at room temperature) it was more than 5000 nM; in experiment [2] (IC50 @T790M - C797S - Del19, EGFR[T790M/C797S/d746-750], 1 mM ATP, 1 h at room temperature), 2.5 nM; against EGFR Exon19Del (IC50 @Del19, EGFR Exon19Del, 1 mM ATP, 1 h at room temperature), 0.016 µM. Further, the half-maximal inhibitory concentration (IC50) was 73 nM against EGFR (C797S L858R) (IC50 @L858-C797S, EGFR (C797S L858R), 1 h at room temperature); 6.5 nM at EGFR (d746-750 C797S) (IC50 @Del19-C797S, EGFR (d746-750 C797S), 1 h at room temperature); more than 5000 nM against EGFR L858R (IC50 @L858R, 1 h at room temperature). The GI50 in [1] (BaF3 cells, EGFR DEL19 - C797S, read-out: GI50 DEL19 - C797S/BaF3) was found to be 0.022 µM; in experiment [1] (BaF3 cells, EGFR DEL19 - T790-C797S, read-out: GI50 DEL19 - T790-C797S/BaF3), 0.015 µM; in [1] (BaF3 cells, EGFR L858R - C797S, read-out: GI50 L858R - C797S/BaF3), 0.195 µM; in [1] (BaF3 cells, EGFR L858R - T790-C797S, read-out: GI50 L858R - T790-C797S/BaF3), 0.0059 µM; in [1] (BaF3 cells, EGFR L858R, read-out: GI50 L858R/BaF3), 0.442 µM; in experiment [1] (EGFR DEL19 - T790M, read-out: GI50 DEL19 - T790M), 0.0072 µM. The GI50 in the experiment on PC-9 (read-out: GI50 PC9) was determined as 0.113 µM.
